Values of other authors as cited in paper PMC5266543 (ACS infectious diseases, 2016).

Tested on: M. tuberculosis H37Rv
Settings: cited from earlier work

CC(=O)N(O)CCCP(=O)(O)O [Compound 2, FR900098]
MIC against Mtb: essentially inactive
